Active and inactive are the calls of the source. No cut-off for these calls is given here.
Assays:
[1] = tested on: HT-29; assay: Cytotoxicity against human HT-29 cells after 48 hrs by MTT assay; type: functional, cell-based; details: HT-29, 48 h
[2] = tested on: A549; assay: cells; details: Homo sapiens, A549, 48 h
Description: Cytotoxicity against human A549 cells after 48 hrs by MTT assay

[3] = tested on: Bel-7402; assay: Cytotoxicity against human Bel7402 cells after 48 hrs by MTT assay; type: functional, cell-based; details: Bel-7402, 48 h
[4] = tested on: A549; assay: Ratio of compound IC50 to gambogic acid IC50 for human A549 cells; type: functional
[5] = tested on: HT-29; assay: Ratio of compound IC50 to gambogic acid IC50 for human HT-29 cells; type: functional
[6] = tested on: BGC-823; assay: Ratio of compound IC50 to gambogic acid IC50 for human BGC823 cells; type: functional
[7] = tested on: BGC-823; assay: Cytotoxicity against human BGC823 cells after 48 hrs by MTT assay; type: functional, cell-based; details: BGC-823, 48 h
[8] = tested on: BGC-823; assay: Induction of apoptosis human BGC823 cells assessed as increase of apoptotic cells after 20 hrs using Annexin-V/PI double-staining by flow cytometry (reference value: 3.9%); type: functional, cell-based
[9] = tested on: BGC-823; assay: Induction of apoptosis human BGC823 cells assessed as increase of apoptotic cells at 4 uM after 20 hrs using Annexin-V/PI double-staining by flow cytometry (reference value: 3.9%); type: functional
[10] = tested on: BGC-823; assay: Induction of apoptosis human BGC823 cells assessed as morphological changes at up to 8 uM after 48 hrs using Annexin-V/PI double-staining by light microscopic analysis; type: functional, cell-based
[11] = tested on: Bel-7402; assay: Ratio of compound IC50 to gambogic acid IC50 for human Bel7402 cells; type: functional
[12] = tested on: BGC-823; assay: Induction of apoptosis human BGC823 cells assessed as increase of apoptotic cells at 8 uM after 20 hrs using Annexin-V/PI double-staining by flow cytometry (reference value: 3.9%); type: functional
[13] = tested on: BGC-823; assay: Induction of apoptosis human BGC823 cells assessed as increase of apoptotic cells at 2 uM after 20 hrs using Annexin-V/PI double-staining by flow cytometry (reference value: 3.9%); type: functional
[14] = tested on: BGC-823; assay: Induction of apoptosis human BGC823 cells assessed as nuclear fragmentation at up to 8 uM after 20 hrs using Annexin-V/PI double-staining by light microscopic analysis; type: functional, cell-based

| SMILES | IC50 [2] [µM] | IC50 [1] [µM] | IC50 [3] [µM] | Ratio IC50 [4] | Ratio IC50 [5] | Ratio IC50 [6] | IC50 [7] [µM] | Activity [8] | Activity [9] [%] | Activity [10] | Ratio IC50 [11] | Activity [12] [%] | Activity [13] [%] | Activity [14] |
| --- | --- | --- | --- | --- | --- | --- | --- | --- | --- | --- | --- | --- | --- | --- |
| C=C(C)C1CC[C@]2(C)CC1c1c(O)c3c(c(C/C=C(\C)CO)c1O2)O[C@]12C(=C[C@@H]4C[C@@H]1C(C)(C)O[C@@]2(C/C=C(/C)C(=O)OC)C4=O)C3=O (some centres undefined) | 0.98 | 0.24 | 13 | 2 | 14 | 2 | 0.62 |  |  |  |  |  |  |  |
| C=C(C)C1CC[C@]2(C)CC1c1c(O)c3c(c(CC=C(C)C)c1O2)O[C@]12C(=C[C@@H]4C[C@@H]1C(C)(C)O[C@@]2(C/C=C(/C)C(=O)OC)C4=O)C3=O (some centres undefined) | 1.79 | 0.81 | 4.56 | 2 | 4 |  | 2.61 |  |  |  |  |  |  |  |
| CC(C)=CCC[C@]1(C)C=Cc2c(O)c3c(c(CC=C(C)C)c2O1)O[C@]12C(=C[C@@H]4C[C@H]1C(C)(C)O[C@@]2(C/C=C(/C)C(=O)O)C4=O)C3=O [GAMBOGIC ACID] | 3.65 | 3.52 | 2.08 |  |  |  | 2.83 |  |  |  |  |  |  |  |
| C=C(C)C1CC[C@]2(C)CC1c1c(O)c3c(c(CC=C(C)C)c1O2)O[C@]12C(=C[C@@H]4C[C@@H]1C(C)(C)O[C@@]2(C/C=C(/C)C(=O)O)C4=O)C3=O (some centres undefined) [GAMBOGELLIC ACID] | 1.12 | 1.34 | 6.48 | 2 |  |  | 0.46 |  |  |  |  |  |  |  |
| COC(=O)/C(C)=C\C[C@@]12OC(C)(C)[C@H]3C[C@@H](C=C4C(=O)c5c(O)c6c(c(CC7OC7(C)C)c5O[C@]431)O[C@]1(C)CCC(=C(C)C)C6C1)C2=O (some centres undefined) | 2.34 | 0.12 | 8.1 |  | 14 |  | 2.53 |  |  |  |  |  |  |  |
| C=C(C)C1CC[C@]2(C)CC1c1c(O)c3c(c(CCC(C)(C)Cl)c1O2)O[C@]12[C@@H]4C[C@H](C(=O)[C@]1(C/C=C(/C)C(=O)O)OC4(C)C)C(O)C2(O)C3=O (some centres undefined) | > 100 | > 100 | > 100 |  |  |  | > 100 |  |  |  |  |  |  |  |
| COC(=O)/C(C)=C\C[C@@]12OC(C)(C)[C@H]3C[C@@H](C=C4C(=O)c5c(O)c6c(c(CC=C(C)C)c5O[C@]431)O[C@]1(C)CCC(=C(C)C)C6C1)C2=O | 5.55 | 0.54 | 7.86 |  | 4 |  | 6.62 |  |  |  |  |  |  |  |
| COC(=O)/C(C)=C\C[C@@]12OC(C)(C)[C@H]3C[C@@H](C=C4C(=O)c5c(O)c6c(c(C/C=C(\C)CO)c5O[C@]431)O[C@]1(C)CCC(=C(C)C)C6C1)C2=O | 1.56 | 0.14 | 11 | 2 | 14 | 2 | 1.42 |  |  |  |  |  |  |  |

Second part, led by results:

| IC50 [2] [µM] | SMILES | IC50 [1] [µM] | IC50 [3] [µM] | Ratio IC50 [4] | Ratio IC50 [5] | Ratio IC50 [6] | IC50 [7] [µM] | Activity [8] | Activity [9] [%] | Activity [10] | Ratio IC50 [11] | Activity [12] [%] | Activity [13] [%] | Activity [14] |
| --- | --- | --- | --- | --- | --- | --- | --- | --- | --- | --- | --- | --- | --- | --- |
| 2.42 | COC(=O)/C(C)=C\C[C@@]12OC(C)(C)[C@H]3C[C@@H](C=C4C(=O)c5c(O)c6c(c(CC=C(C)C)c5O[C@]431)O[C@]1(C)CCC(C3(C)CO3)C6C1)C2=O (some centres undefined) | 0.49 | 4.38 |  | 4 | 2 | 0.92 |  |  |  |  |  |  |  |
| 3.18 | C/C(=C/C[C@@]12OC(C)(C)[C@H]3C[C@@H](C=C4C(=O)c5c(O)c6c(c(CCC(C)(C)Cl)c5O[C@]431)O[C@]1(C)CCC(C3(C)CO3)C6C1)C2=O)C(=O)O (some centres undefined) | 1.33 | 0.44 |  |  |  | 0.28 | Dose-dependent effect | 6.2 | Active | 4.7 | 25.7 | 4.2 | Active |
| 1.24 | C=C(C)C1CC[C@]2(C)CC1c1c(O)c3c(c(CCC(C)(C)Cl)c1O2)O[C@]12C(=C[C@@H]4C[C@@H]1C(C)(C)O[C@@]2(C/C=C(/C)C(=O)O)C4=O)C3=O (some centres undefined) | 1.64 | 18.1 | 2 |  |  | 4 |  |  |  |  |  |  |  |
| 4.63 | C=C(C)C1CC[C@]2(C)CC1c1c(O)c3c(c(CCC(C)(C)Cl)c1O2)O[C@]12C(=C[C@@H]4C[C@@H]1C(C)(C)O[C@@]2(C/C=C(/C)C(=O)OC)C4=O)C3=O (some centres undefined) | 4.55 | 2.63 |  |  | 2 | 1.98 |  |  |  |  |  |  |  |
| 27.6 | C/C(=C/C[C@@]12OC(C)(C)[C@H]3C[C@@H](C=C4C(=O)c5c(O)c6c(c(CCC(C)(C)Cl)c5O[C@]431)O[C@]1(C)CC(=O)C(C(C)C)C6C1)C2=O)C(=O)O (some centres undefined) | 5.6 | 4.12 |  |  |  | 2.93 |  |  |  |  |  |  |  |

— ChEMBL document CHEMBL1240451, “Studies on chemical modification and biology of a natural product, gambogic acid (II): Synthesis and bioevaluation of gambogellic acid and its derivatives from gambogic acid as antitumor agents” (Eur J Med Chem, 2010)
